Data reported in patent US10519154B2, “7-substituted 1-pyridyl-naphthyridine-3-carboxylic acid amides and use thereof” (Bayer Pharma Aktiengesellschaft, priority 2016, dated 2019).

Target: T1, human M2 receptor (Homo sapiens, UniProt P08172)
T1 sequence (P08172 1-466): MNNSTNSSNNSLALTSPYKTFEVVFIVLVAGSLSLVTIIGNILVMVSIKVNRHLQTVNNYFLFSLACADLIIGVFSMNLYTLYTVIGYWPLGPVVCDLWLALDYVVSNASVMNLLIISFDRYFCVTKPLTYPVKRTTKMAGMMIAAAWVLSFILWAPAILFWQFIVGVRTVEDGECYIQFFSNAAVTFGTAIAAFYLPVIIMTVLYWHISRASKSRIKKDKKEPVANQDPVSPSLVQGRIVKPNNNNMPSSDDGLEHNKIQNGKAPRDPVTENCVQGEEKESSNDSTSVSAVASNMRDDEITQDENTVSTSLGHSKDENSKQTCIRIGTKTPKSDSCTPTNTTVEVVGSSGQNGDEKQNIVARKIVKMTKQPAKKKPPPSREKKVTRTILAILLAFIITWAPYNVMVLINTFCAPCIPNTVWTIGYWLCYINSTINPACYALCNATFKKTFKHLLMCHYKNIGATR
Assay: Functional M2-GIRK1/4 activation test: allosteric potency (EC50) and efficiency
Details: for EC50: Receptor activity EC50, CHO-DUKX-M2-GIRK cells, acetylcholine at EC20, in some cases mean of two or more determinations; for Emax: read-out: Efficiency, boosting of the acetylcholine effect at EC20 acetylcholine concentration; for Emax / Efficiency: CHO-DUKX-M2-GIRK cells; for Efficiency: boosting of the acetylcholine effect at EC20 acetylcholine concentration

Compound `CC1C(O)C2(CC2)C(=O)N1c1ccc2c(=O)c(C(=O)N[C@@H](C3CC3)C(F)(F)F)cn(-c3ncc(F)cc3F)c2n1` (stereo partly drawn) [Example 115, N-[(1S)-1-Cyclopropyl-2,2,2-trifluoroethyl]-1-(3,5-difluoropyridin-2-yl)-7-[7-hydroxy-6-methyl-4-oxo-5-azaspiro[2.4]hept-5-yl]-4-oxo-1,4-dihydro-1,8-naphthyridine-3-carboxamide] has an EC50 of 0.15 µM and an Emax of 89%.
Work on `O=C(NC(C(F)(F)F)C(F)(F)F)c1cn(-c2ncc(F)cc2F)c2nc(N3CCCC[C@@H]3CO)ccc2c1=O` [Example 178, 1-(3,5-Difluoropyridin-2-yl)-N-(1,1,1,3,3,3-hexafluoropropan-2-yl)-7-[(2R)-2-(hydroxymethyl)piperidin-1-yl]-4-oxo-1,4-dihydro-1,8-naphthyridine-3-carboxamide] yielded an EC50 of 0.056 µM and an Emax of 100%.
For `CC[C@H](NC(=O)c1cn(-c2c(F)cncc2F)c2nc(N3C[C@@H](O)[C@H](O)C3)ccc2c1=O)C(F)(F)F` [Example 118, 1-(3,5-Difluoropyridin-4-yl)-7-[(3R,4R)-3,4-dihydroxypyrrolidin-1-yl]-4-oxo-N-[(2S)-1,1,1-trifluorobutan-2-yl]-1,4-dihydro-1,8-naphthyridine-3-carboxamide], the EC50 was 0.5 µM and the Emax was 100%.
`CC1(NC(=O)c2cn(-c3ncc(F)cc3F)c3nc(N4C[C@@H](O)[C@H](O)C4)ccc3c2=O)CC(F)(F)C1` [Example 170, N-(3,3-Difluoro-1-methylcyclobutyl)-1-(3,5-difluoropyridin-2-yl)-7-[(3R,4R)-3,4-dihydroxypyrrolidin-1-yl]-4-oxo-1,4-dihydro-1,8-naphthyridine-3-carboxamide] showed an EC50 of 2.25 µM and an Emax of 86%.
For `O=C(NC(c1ccc(Cl)cc1)C(F)(F)F)c1cn(-c2ncc(F)cc2F)c2nc(N3C[C@@H](O)CC3=O)ccc2c1=O` (stereo partly drawn) [Example 8, N-[1-(4-Chlorophenyl)-2,2,2-trifluoroethyl]-1-(3,5-difluoropyridin-2-yl)-7-[(4S)-4-hydroxy-2-oxopyrrolidin-1-yl]-4-oxo-1,4-dihydro-1,8-naphthyridine-3-carboxamide], the EC50 was 0.083 µM and the Emax was 100%.
Compound `CC1C(O)C2(CC2)C(=O)N1c1ccc2c(=O)c(C(=O)N[C@@H](C)C(F)(F)F)cn(-c3ncc(F)cc3F)c2n1` (stereo partly drawn) [Example 116, 1-(3,5-Difluoropyridin-2-yl)-7-[7-hydroxy-6-methyl-4-oxo-5-azaspiro[2.4]hept-5-yl]-4-oxo-N-[(2S)-1,1,1-trifluoropropan-2-yl]-1,4-dihydro-1,8-naphthyridine-3-carboxamide] has an EC50 of 0.335 µM and an Emax of 96%.
With `CC[C@H](NC(=O)c1cn(-c2ncc(F)cc2F)c2nc(N3C(=O)C(C)(C)C(O)C34CC4)ccc2c1=O)C(F)(F)F` (stereo partly drawn) [Example 31, 1-(3,5-Difluoropyridin-2-yl)-7-[7-hydroxy-6,6-dimethyl-5-oxo-4-azaspiro[2.4]hept-4-yl]-4-oxo-N-[(2S)-1,1,1-trifluorobutan-2-yl]-1,4-dihydro-1,8-naphthyridine-3-carboxamide] the EC50 was 0.645 µM and the Emax was 88.5%.
`O=C(N[C@H](C1CC1)C(F)(F)F)c1cn(-c2ncccc2Cl)c2nc(N3C[C@@H](O)CC3=O)ccc2c1=O` [Example 22, 1-(3-Chloropyridin-2-yl)-N-[(1R)-1-cyclopropyl-2,2,2-trifluoroethyl]-7-[(4S)-4-hydroxy-2-oxopyrrolidin-1-yl]-4-oxo-1,4-dihydro-1,8-naphthyridine-3-carboxamide] was tested, and the EC50 was 0.575 µM and the Emax was 85%.
Work on `O=C(NC(C(F)(F)F)C(F)(F)F)c1cn(-c2ncc(F)cc2F)c2nc(N3CCC[C@@H]3CO)ccc2c1=O` [Example 180, 1-(3,5-Difluoropyridin-2-yl)-N-(1,1,1,3,3,3-hexafluoropropan-2-yl)-7-[(2R)-2-(hydroxymethyl)pyrrolidin-1-yl]-4-oxo-1,4-dihydro-1,8-naphthyridine-3-carboxamide] yielded an EC50 of 0.089 µM and an Emax of 100%.
For `O=C(N[C@H](C1CC1)C(F)(F)F)c1cn(-c2ncc(F)cc2F)c2nc(N3CCN(CCO)C3=O)ccc2c1=O` [Example 121, N-[(1R)-1-Cyclopropyl-2,2,2-trifluoroethyl]-1-(3,5-difluoropyridin-2-yl)-7-[3-(2-hydroxyethyl)-2-oxoimidazolidin-1-yl]-4-oxo-1,4-dihydro-1,8-naphthyridine-3-carboxamide], the EC50 was 0.32 µM and the Emax was 99%.
`CC(NC(=O)c1cn(-c2ncc(F)cc2F)c2nc(N3C[C@@H](O)CC3=O)ccc2c1=O)C(F)(F)C(F)(F)F` (single isomer, unassigned) [Example 77] showed an EC50 of 0.26 µM and an Emax of 100%.
Work on `CC1C(=O)N(c2ccc3c(=O)c(C(=O)N[C@@H](C)C(F)(F)F)cn(-c4ncc(F)cc4F)c3n2)CC1O` (mixture of isomers) [Example 112, 1-(3,5-Difluoropyridin-2-yl)-7-[4-hydroxy-3-methyl-2-oxopyrrolidin-1-yl]-4-oxo-N-[(2S)-1,1,1-trifluoropropan-2-yl]-1,4-dihydro-1,8-naphthyridine-3-carboxamide] yielded an EC50 of 0.525 µM and an Emax of 98%.
Compound `CC(NC(=O)c1cn(-c2ncc(F)cc2F)c2nc(N3CCNC3=O)ccc2c1=O)C(F)(F)C(F)(F)F` (single isomer, unassigned) [Example 162, 1-(3,5-Difluoropyridin-2-yl)-4-oxo-7-(2-oxoimidazolidin-1-yl)-N-[3,3,4,4,4-pentafluorobutan-2-yl]-1,4-dihydro-1,8-naphthyridine-3-carboxamide] has an EC50 of 0.024 µM and an Emax of 96%.
Work on `O=C(NC12CC(F)(C1)C2)c1cn(-c2ncc(F)cc2F)c2nc(N3C[C@@H](O)CC3=O)ccc2c1=O` [Example 102, 1-(3,5-Difluoropyridin-2-yl)-N-(3-fluorobicyclo[1.1.1]pent-1-yl)-7-[(4S)-4-hydroxy-2-oxopyrrolidin-1-yl]-4-oxo-1,4-dihydro-1,8-naphthyridine-3-carboxamide] yielded an EC50 of 1.06 µM and an Emax of 89%.
Work on `CC1(O)CCN(c2ccc3c(=O)c(C(=O)Nc4c(Cl)cccc4Cl)cn(-c4ncc(F)cc4F)c3n2)C1` (racemic) [Example 69, N-(2,6-Dichlorophenyl)-1-(3,5-difluoropyridin-2-yl)-7-[3-hydroxy-3-methylpyrrolidin-1-yl]-4-oxo-1,4-dihydro-1,8-naphthyridine-3-carboxamide] yielded an EC50 of 0.365 µM and an Emax of 92%.
`CC(NC(=O)c1cn(-c2ncc(F)cc2F)c2nc(N3C[C@@H](O)CC3=O)ccc2c1=O)C(F)(F)C(F)(F)F` (mixture of isomers) [Example 76, 1-(3,5-Difluoropyridin-2-yl)-7-[(4S)-4-hydroxy-2-oxopyrrolidin-1-yl]-4-oxo-N-[3,3,4,4,4-pentafluorobutan-2-yl]-1,4-dihydro-1,8-naphthyridine-3-carboxamide] showed an EC50 of 0.035 µM and an Emax of 94%.
With `CC1(NC(=O)c2cn(-c3ncc(F)cc3F)c3nc(N4CCNC4=O)ccc3c2=O)CC(F)(F)C1` [Example 171, N-(3,3-Difluoro-1-methylcyclobutyl)-1-(3,5-difluoropyridin-2-yl)-4-oxo-7-(2-oxoimidazolidin-1-yl)-1,4-dihydro-1,8-naphthyridine-3-carboxamide] the EC50 was 3.1 µM and the Emax was 90.5%.
Work on `CCC(NC(=O)c1cn(-c2ncc(F)cc2F)c2nc(N3CCNC3=O)ccc2c1=O)C(F)(F)C(F)(F)F` (single isomer, unassigned) [Example 166, 1-(3,5-Difluoropyridin-2-yl)-4-oxo-7-(2-oxoimidazolidin-1-yl)-N-[1,1,1,2,2-pentafluoropentan-3-yl]-1,4-dihydro-1,8-naphthyridine-3-carboxamide] yielded an EC50 of 0.03 µM and an Efficiency of 81.00%.
`O=C(N[C@H](C1CC1)C(F)(F)F)c1cn(-c2ncccc2F)c2nc(N3C[C@@H](O)CC3=O)ccc2c1=O` [Example 139, N-[(1R)-1-Cyclopropyl-2,2,2-trifluoroethyl]-1-(3-fluoropyridin-2-yl)-7-[(4S)-4-hydroxy-2-oxopyrrolidin-1-yl]-4-oxo-1,4-dihydro-1,8-naphthyridine-3-carboxamide] was tested, and the EC50 was 0.23 µM and the Emax was 100%.
`CC[C@H](NC(=O)c1cn(-c2ncc(F)cc2F)c2nc(N3C[C@@H](C)NC3=O)ccc2c1=O)C(F)(F)F` [Example 143, 1-(3,5-difluoropyridin-2-yl)-7-[(4R)-4-methyl-2-oxoimidazolidin-1-yl]-4-oxo-N-[(2S)-1,1,1-trifluorobutan-2-yl]-1,4-dihydro-1,8-naphthyridine-3-carboxamide] showed an EC50 of 0.09 µM and an Emax of 90%.
For `O=C(NC(c1ccccc1Cl)C(F)(F)F)c1cn(-c2ncc(F)cc2F)c2nc(N3C[C@@H](O)[C@H](O)C3)ccc2c1=O` (single isomer, unassigned) [Example 85], the EC50 was 0.085 µM and the Efficiency was 99.00%.
`CC(C)C[C@H](NC(=O)c1cn(-c2ncc(F)cc2F)c2nc(N3C[C@@H](O)[C@H](O)C3)ccc2c1=O)C(F)(F)F` [Example 82, 1-(3,5-Difluoropyridin-2-yl)-7-[(3R,4R)-3,4-dihydroxypyrrolidin-1-yl]-4-oxo-N-[(2S)-1,1,1-trifluoro-4-methylpentan-2-yl]-1,4-dihydro-1,8-naphthyridine-3-carboxamide] gave an EC50 of 0.028 µM and an Emax of 100%.
`CC1CC(=O)N(c2ccc3c(=O)c(C(=O)N[C@H](C4CC4)C(F)(F)F)cn(-c4ncc(F)cc4F)c3n2)C1` (single isomer, unassigned) [Example 29] was tested, and the EC50 was 0.059 µM and the Efficiency was 98.00%.
